Common to all, as to type: in vivo, mouse
One assay relates to TNFα. Kind of assay: Serum TNFα in NZM mice. As for the experimental part:
(§1) For the processing of serum samples for cytokine analysis, frozen plasma at −80° C. was thawed on ice, vortexed, and centrifuged for 10 minutes to remove debris and aggregates. A total of 25-50 μL of serum was used for Luminex® assays following the manufacturer's instructions. Ten different mouse cytokines were measured using the mouse cytokine 10-plex bead kit (Invitrogen, Carlsbad, Calif., no. LMC0001). Briefly, filter plates (Millipore, Billerica, Mass., no. MAIPSWU10), were pre-wet with 200 μL of wash solution (kit component) and 25 μL of beads were added per well. […]
(§2) Age mated, female, NZM or NZW/LacJ, mice were matured for the study of lupus nephritis for a total of 7 months or 210 days at which time urine was collected for proteinuria detection. Mice with 0.5-1.0 mg/ml of urine protein as determined by an optical density-based total protein precipitation assay and cross-checked for 30-300 mg/dl of protein as determined by a stick assay were considered proteinuria positive and selected for study entry. […] End-stage lupus nephritis was evaluated by histopathology and scored by a board certified pathologist for the assessment of total renal damage in diseased animals using the scoring method described by Smith et al (Smith, Dong et al. 2007). […]

The next assay relates to C3. Kind of assay: Serum complement C3 in MRL/lpr mice. An excerpt:
MRL/lpr mice were first randomized, initial bleeds collected, and body weights recorded for baseline measurements (FIG. 1). All mice were individually ear tagged and were monitored throughout the entire experiment (e.g., “Group#-Cage letter-Mouse#”, so “3B5”=Group 3 (G3), cage B, mouse#5). Mice were age-matched and treatment started at 6-8 weeks of age. Cheek bleeds and urine collection continued weekly throughout the experiment. Mice were individually tracked for several parameters including cytokine and ANA levels, proteinuria, body mass, lymphomegaly, general health, and mortality. All parameters were evaluated bi-monthly except mortality which was monitored daily. All groups consisted of a minimum of at least 10-12 mice per group. Ex vivo experiments included flow cytometry analyses for plasma cells, serum complement C3 and ANA levels; urine protein and leukocytes, serum cytokine profiling, renal histo pathology, and determination of compound levels (pharmacokinetics (PK)) in the spleen, kidney and plasma. Mice were tracked on an individual basis. For all data, mice were grouped into populations and data graphed as mean±SEM. Bi-monthly observations and data collected were recorded for each group, except mortality which was performed daily. End-stage readouts were analyzed as described in the MATERIALS AND METHODS section (above) and in FIG. 1. […]

The next assay has as its system plasma cells. In words: BrdU short-lived / long-lived plasma cells in spleen and bone marrow of NZM mice. Particulars: 15 week old NZM mice, two weeks. The protocol: Twenty-four hours before the end of the study each mouse was injected i.p. with 2 mg of thymidine analog, bromodeoxyuridine (BrdU). BrdU (Cat#550891) and an anti-BrdU-FITC staining kit (Cat#559619) were obtained from BD Biosciences (Franklin Lakes, N.J.). Twenty-four hours after BrdU injection spleen and bone marrow were individually processed to isolate leukocytes for flow staining. Cells were surface stained with anti-CD19-Cyc, anti-CD38-PE and anti-CD138-APC (all obtained from eBioscience in San Diego, Calif.) as well as anti-BrdU-FITC (from the BrdU kit). Analysis included gating on live SSC/FSC populations, CD19-negative, CD38-positive and gating on CD138-positive, BrdU-negative (non-cycling, long-lived plasma cells, region R2) or BrdU-positive (cycling, short-lived plasma cells, region R1) as shown in FIG. 42. All samples were analyzed using an Accuri C6 Flow Cytometer. Complete media (R10) was used for all experiments involving the ex vivo culture of splenocytes for all Elispot experiments. […] The Figures depict spleen short-lived plasma cells (FIG. 38), bone marrow isolated short-lived plasma cells (FIG. 39), spleen long-lived plasma cells (FIG. 40), and bone marrow isolated long-lived plasma cells (FIG. 41). Also depicted are representative dot plots providing gating examples and short-lived plasma cells, R1, and long-lived plasma cells, R2, gates (FIG. 42). Graphs show mean±SEM, statistical test included two-tailed, Mann-Whitney t-test, *p<0.05 was considered significant. All events shown were originally size gated on live cells, graphs show CD19-negative, CD38/CD138-double positive populations that had either incorporated BrdU (cycling, thus short-lived plasma cells, see region R1) or not incorporated BrdU (non-cycling, thus long-lived plasma cells, see region R2).

The next assay relates to CXCL10/IP-10. Kind of assay: Serum CXCL10/IP-10 in NZM mice. The protocol:
as §1, §2

Molecules are shown by their SMILES.

Take `CN1CCN(c2cccc(Nc3nc4c(-c5ccc(S(C)(=O)=O)cc5)cccn4n3)c2)CC1` [COMPOUND A, [8-(4-methanesulfonyl-phenyl)-[1,2,4]triazolo[1,5-a]pyridin-2-yl]-[3-(4-methyl-piperazin-1-yl)-phenyl]-amine]: the figures for the “serum TNFα decrease compared to vehicle” value with TNFα (55 mg/kg) and with TNFα (100 mg/kg) were 92.3% and 88.3%, respectively. The “serum C3 increase over vehicle” value turned out to be 51.4% in the assay on C3 (55 mg/kg p.o. b.i.d.) and 52.5% in the assay on C3 (100 mg/kg p.o. b.i.d.). In addition, the “short lived plasma cells in the bone marrow” value in the assay with plasma cells (100 mg/kg orally b.i.d., FIG. 39) is “impacted”. The “long lived plasma cells in the bone marrow” value with plasma cells (100 mg/kg orally b.i.d., FIG. 41) was “impacted”. In addition, in the assay on plasma cells (all three doses (100, 55, 30 mg/kg) orally b.i.d., FIG. 40), the “long lived plasma cells in the spleen” value was “impacted”. In addition, the “serum CXCL10/IP-10 decrease compared to vehicle” value in the assay with CXCL10/IP-10 (55 mg/kg) was determined as 47.3%; in the assay with CXCL10/IP-10 (100 mg/kg), 80.0%.
